These are literature values, as cited in the Kinase Knowledgebase extract (Sharma et al. 2016).

A word on the IC50: it is the concentration that gives 50% inhibition.

Each structure is given as a SMILES string.

In this series the target is MAPK14 (human) (UniProt Q16539). Put plainly: Assessment of MAPK14 Kinase Activity.
Chain of MAPK14 (human) (Q16539 whole entry, looked up): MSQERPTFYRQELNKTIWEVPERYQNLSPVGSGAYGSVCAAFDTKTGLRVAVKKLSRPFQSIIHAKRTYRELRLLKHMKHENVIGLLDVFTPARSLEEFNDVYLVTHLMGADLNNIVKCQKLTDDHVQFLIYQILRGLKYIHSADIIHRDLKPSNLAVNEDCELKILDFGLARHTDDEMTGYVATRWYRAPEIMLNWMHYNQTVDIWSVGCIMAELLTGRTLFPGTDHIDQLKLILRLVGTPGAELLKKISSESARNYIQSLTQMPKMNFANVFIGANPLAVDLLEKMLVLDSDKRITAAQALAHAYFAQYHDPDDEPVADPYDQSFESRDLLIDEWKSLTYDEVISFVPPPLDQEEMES
Take `Cc1ccc(C(=O)NC2CC2)cc1-c1cc2cnn(-c3cc(F)ccc3F)c2n(C)c1=O`: the IC50 is 1.9 nM.

In the case of `Cn1c(=O)cc(Nc2ccc(F)cc2F)c2cnn(-c3ccc(F)cc3F)c21`, the IC50 is 1000 nM. Consider `CCn1c(=O)c(-c2cc(C(=O)NC3CC3)ccc2C)cc2cnn(-c3ccc(F)cc3F)c21`, for which the IC50 is 0.6 nM. In the case of `Cc1ccc(C(=O)NC2CC2)cc1-c1cc2cnn(-c3ccccc3Cl)c2n(C)c1=O`, the IC50 is 0.899 nM.

On to `Cn1c(=O)cc(Nc2ccc(F)cc2)c2cnn(-c3c(F)cccc3F)c21`, for which the IC50 is 1000 nM. For `Cc1ccc(C(=O)Nc2ccon2)cc1-c1cc2cnn(-c3c(F)cccc3F)c2n(C)c1=O`, the IC50 was 1 nM. Regarding `Cn1c(=O)cc(NC2CCOCC2)c2cnn(-c3cccc(F)c3)c21`, the IC50 was 1000 nM.

Turning to `Cc1c(F)cc(C(=O)NC2CC2)cc1-c1cc2cnn(-c3c(F)cccc3F)c2n(C)c1=O`, the IC50 is 0.8 nM. On to `CNc1noc2c(-c3cc4cnn(-c5c(F)cccc5F)c4n(C)c3=O)c(C)ccc12`, for which the IC50 was 2 nM. With `Cc1ccc(C(=O)NC2(C)CC2)cc1-c1cc2cnn(-c3c(F)cccc3F)c2n(C)c1=O`, the IC50 was 1.7 nM. Turning to `Cc1ccc(C(=O)NC2CC2)cc1-c1cc2cnn(-c3ccccc3C)c2n(C)c1=O`, the IC50 was 1.9 nM.

`Cc1ccc(C(N)=O)cc1-c1cc2cnn(-c3c(F)cccc3F)c2n(C)c1=O`: the IC50 is 1.5 nM. Consider `Cc1ccc(C(=O)NC2CC2)cc1-c1cc2cnn(-c3ncccc3C(F)(F)F)c2n(C)c1=O`, for which the IC50 was 2.3 nM. For the molecule `Cc1ccc(C(=O)O)cc1Nc1cc(=O)n(C)c2c1cnn2-c1ccc(F)cc1F`, the IC50 is 1000 nM.
